Consider 2 molecules from PMC7017090, “Repaglinide Silences the FOXO3/Lumican Axis and Represses the Associated Metastatic Potential of Neuronal Cancer Cells” (Cells, 2019).

One data set concerns the target FOXO3 (Homo sapiens, UniProt O43524). In words: fluorescence polarization displacement of IRE-FAM oligonucleotide from recombinant FOXO3-DBD (Ki calculated from IC50 […]); supported by FAM-EMSA. The format is binding.
A further data set has as its target FOXO3-DBD (human, UniProt O43524 156-269). In words: EMSA; 1 uM protein, 100 nM DNA; 'high affinity'; Not stated; FPA and FAM-EMSA as described in ref 24. To be noted: protein: recombinant; blunt.

Sequence of FOXO3 (O43524 156-269): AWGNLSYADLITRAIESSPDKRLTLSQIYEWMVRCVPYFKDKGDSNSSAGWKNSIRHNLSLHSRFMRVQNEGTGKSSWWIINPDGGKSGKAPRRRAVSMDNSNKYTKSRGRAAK
Sequence of FOXO3-DBD (O43524 156-269): as above

As for `CCOc1cc(CC(=O)N[C@@H](CC(C)C)c2ccccc2N2CCCCC2)ccc1C(=O)O` [RPG, repaglinide], at FOXO3, the Ki is 24.9 µM.

B1: FoxP3 oligonucleotide (FAM) (dsDNA)
DNA 1: AGCAAAGTTGTTTTTGATAATG
DNA 2: CATTATCAAAAACAACTTTGCT
Turning to B1, the binding result with FOXO3-DBD is “binds”.
